The text below walks through data of patent US20240208968A1, “ALPHA V BETA 6 AND ALPHA V BETA 1 INTEGRIN INHIBITORS AND USES THEREOF” (DiCE Molecules SV, Inc., priority 2021, published 2024).

SMILES strings stand for the structures. Where a name gives a salt, the structure may show the parent alone.

The target in one assay is αvβ6 (Homo sapiens, UniProt P06756+P18564). The experiment in a line: Solid Phase Integrin αvβ6 Assay. It is filed as binding. The procedure, abridged: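 Inhibition of αvβ6 binding to immobilized recombinant TGFb1-LAP (1 μg/mL coating), 1 h at room temperature with 1 mM MnCl2 in BSA/TBST buffer, integrin diluted to 0.2 μg/mL before addition. Streptavidin-HRP/TMB read-out; four-parameter logistic fitting gave IC50.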
αvβ6, sequence (P06756 31-992 limits assumed): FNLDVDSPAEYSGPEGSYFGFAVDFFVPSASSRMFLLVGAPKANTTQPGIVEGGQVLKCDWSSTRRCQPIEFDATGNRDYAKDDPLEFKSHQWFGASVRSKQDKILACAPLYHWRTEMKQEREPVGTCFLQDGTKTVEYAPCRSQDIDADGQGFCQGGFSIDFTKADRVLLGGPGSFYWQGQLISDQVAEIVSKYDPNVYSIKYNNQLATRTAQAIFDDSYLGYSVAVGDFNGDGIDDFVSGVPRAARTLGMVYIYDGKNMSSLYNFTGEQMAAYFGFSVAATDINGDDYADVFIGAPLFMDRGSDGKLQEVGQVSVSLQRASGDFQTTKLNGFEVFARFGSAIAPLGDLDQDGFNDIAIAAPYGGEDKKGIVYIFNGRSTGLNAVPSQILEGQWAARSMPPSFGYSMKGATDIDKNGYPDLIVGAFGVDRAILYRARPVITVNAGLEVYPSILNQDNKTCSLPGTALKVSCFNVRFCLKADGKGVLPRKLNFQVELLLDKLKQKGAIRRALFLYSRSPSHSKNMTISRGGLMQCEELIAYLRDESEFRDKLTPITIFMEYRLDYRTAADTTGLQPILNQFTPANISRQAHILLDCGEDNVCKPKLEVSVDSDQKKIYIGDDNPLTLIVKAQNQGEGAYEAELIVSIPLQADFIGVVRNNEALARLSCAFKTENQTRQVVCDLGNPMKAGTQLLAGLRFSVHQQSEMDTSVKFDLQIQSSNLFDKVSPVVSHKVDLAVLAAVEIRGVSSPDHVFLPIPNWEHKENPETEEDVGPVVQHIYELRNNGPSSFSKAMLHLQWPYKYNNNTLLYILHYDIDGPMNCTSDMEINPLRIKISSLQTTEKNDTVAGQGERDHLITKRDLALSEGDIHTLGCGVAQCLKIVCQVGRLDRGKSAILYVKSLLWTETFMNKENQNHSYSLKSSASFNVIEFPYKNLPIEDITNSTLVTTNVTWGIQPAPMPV
αvβ6, sequence (P18564 22-707 limits assumed): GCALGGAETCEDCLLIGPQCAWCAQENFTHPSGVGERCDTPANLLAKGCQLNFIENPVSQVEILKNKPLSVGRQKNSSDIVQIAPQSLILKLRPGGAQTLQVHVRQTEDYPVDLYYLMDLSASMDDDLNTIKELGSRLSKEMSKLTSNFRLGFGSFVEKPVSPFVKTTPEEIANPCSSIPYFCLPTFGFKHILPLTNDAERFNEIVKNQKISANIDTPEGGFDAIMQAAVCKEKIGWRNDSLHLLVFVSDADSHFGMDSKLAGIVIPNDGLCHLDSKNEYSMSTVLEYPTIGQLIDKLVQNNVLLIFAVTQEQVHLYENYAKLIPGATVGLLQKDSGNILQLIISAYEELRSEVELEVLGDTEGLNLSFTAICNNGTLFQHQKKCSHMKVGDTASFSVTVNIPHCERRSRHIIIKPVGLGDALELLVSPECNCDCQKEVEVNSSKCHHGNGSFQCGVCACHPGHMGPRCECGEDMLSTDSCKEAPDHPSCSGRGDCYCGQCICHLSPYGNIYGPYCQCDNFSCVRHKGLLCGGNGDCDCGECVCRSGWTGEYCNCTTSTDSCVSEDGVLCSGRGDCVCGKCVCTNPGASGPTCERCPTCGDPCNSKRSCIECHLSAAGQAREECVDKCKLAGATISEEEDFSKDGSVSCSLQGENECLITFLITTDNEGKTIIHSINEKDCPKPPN

The target in a further assay is αvβ1 (Homo sapiens, UniProt P05556+P06756). The experiment in a line: Solid Phase Integrin αvβ1 Assay. It counts as binding. The method in brief:
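Compound competes for αvβ1 binding to immobilized TGFb1-LAP (1 µg/mL coat) in Mn2+ (1 mM MnCl2), 2% BSA binding buffer over 90 min at room temperature, integrin added at 0.2 µg/mL. Read-out: streptavidin-HRP/TMB; IC50 from Levenberg-Marquardt four-parameter fit.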

αvβ1, sequence (P06756 31-992 limits assumed): as the sequence (P06756 31-992 limits assumed) above
αvβ1, sequence (P05556 21-728 limits assumed): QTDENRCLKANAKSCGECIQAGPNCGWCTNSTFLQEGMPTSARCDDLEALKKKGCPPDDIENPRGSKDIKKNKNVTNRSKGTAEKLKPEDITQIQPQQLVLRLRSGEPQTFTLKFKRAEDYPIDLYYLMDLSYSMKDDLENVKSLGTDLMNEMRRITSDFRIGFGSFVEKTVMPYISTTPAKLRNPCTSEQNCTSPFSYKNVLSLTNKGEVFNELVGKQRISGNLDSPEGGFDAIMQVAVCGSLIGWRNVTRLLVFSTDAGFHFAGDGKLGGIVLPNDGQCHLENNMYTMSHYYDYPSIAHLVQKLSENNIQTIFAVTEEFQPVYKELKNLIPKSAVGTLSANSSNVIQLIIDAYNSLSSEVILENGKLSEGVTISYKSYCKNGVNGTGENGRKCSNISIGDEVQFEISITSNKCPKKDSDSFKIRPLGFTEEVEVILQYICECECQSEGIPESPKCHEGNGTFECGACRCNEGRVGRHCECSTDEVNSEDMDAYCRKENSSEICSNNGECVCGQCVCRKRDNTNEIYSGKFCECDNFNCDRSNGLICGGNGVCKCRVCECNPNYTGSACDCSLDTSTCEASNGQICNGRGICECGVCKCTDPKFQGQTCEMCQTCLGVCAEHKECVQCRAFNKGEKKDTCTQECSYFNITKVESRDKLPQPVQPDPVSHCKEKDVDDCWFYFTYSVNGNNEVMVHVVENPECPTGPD

The IC50 is the concentration needed to halve the response being measured. A low value points to higher potency. Consider `Cc1cc(C)n(-c2cccc([C@@H](CNC(=O)[C@@H]3CCCN(CCCc4ccc5c(n4)NCCC5)C3)C(=O)O)c2)n1` [Compound 257-B, 2-(3-(3,5-dimethyl-1H-pyrazol-1-yl)phenyl)-3-((R)-1-(3-(5,6,7,8-tetrahydro-1,8-naphthyridin-2-yl)propyl)piperidine-3-carboxamido)propanoic acid], for which the IC50 against αvβ6 and at αvβ1 was below 100 nM each time.

Consider `O=C(NC[C@H](C(=O)O)c1cccc(C2CC2)c1)[C@@H]1CCCN(CCCc2ccc3c(n2)NCCC3)C1` [Compound 258-A, 2-(3-cyclopropylphenyl)-3-((R)-1-(3-(5,6,7,8-tetrahydro-1,8-naphthyridin-2-yl)propyl)piperidine-3-carboxamido)propanoic acid], for which the IC50 against αvβ6 and against αvβ1 was 100 to 1000 nM throughout.

Take `O=C(NC[C@@H](C(=O)O)c1cccc(C2CC2)c1)[C@@H]1CCCN(CCCc2ccc3c(n2)NCCC3)C1` [Compound 258-B, 2-(3-cyclopropylphenyl)-3-((R)-1-(3-(5,6,7,8-tetrahydro-1,8-naphthyridin-2-yl)propyl)piperidine-3-carboxamido)propanoic acid]: the IC50 against αvβ6 and against αvβ1 was below 100 nM throughout.

Regarding `O=C(NC[C@H](C(=O)O)c1ccc(C2CC2)cc1)[C@@H]1CCCN(CCCc2ccc3c(n2)NCCC3)C1` [Compound 259-A, 2-(4-cyclopropylphenyl)-3-((R)-1-(3-(5,6,7,8-tetrahydro-1,8-naphthyridin-2-yl)propyl)piperidine-3-carboxamido)propanoic acid], the half-inhibitory concentration (IC50) on αvβ6 and against αvβ1 was below 100 nM each time.

Consider `O=C(NC[C@H](C(=O)O)c1ccccc1C1CC1)[C@@H]1CCCN(CCCc2ccc3c(n2)NCCC3)C1` [Compound 260-A, 2-(2-cyclopropylphenyl)-3-((R)-1-(3-(5,6,7,8-tetrahydro-1,8-naphthyridin-2-yl)propyl)piperidine-3-carboxamido)propanoic acid], for which the IC50 at αvβ6 and against αvβ1 was below 100 nM throughout.

For `O=C(NC[C@@H](C(=O)O)c1ccccc1C1CC1)[C@@H]1CCCN(CCCc2ccc3c(n2)NCCC3)C1` [Compound 260-B, 2-(2-cyclopropylphenyl)-3-((R)-1-(3-(5,6,7,8-tetrahydro-1,8-naphthyridin-2-yl)propyl)piperidine-3-carboxamido)propanoic acid], the IC50 was above 1000 nM at αvβ6 and 100 to 1000 nM against αvβ1.

With `O=C(NC[C@H](Nc1cccc2ccccc12)C(=O)O)[C@@H]1CCCN(CCCc2ccc3c(n2)NCCC3)C1` [Compound 261, (S)-2-(naphthalen-1-ylamino)-3-((R)-1-(3-(5,6,7,8-tetrahydro-1,8-naphthyridin-2-yl)propyl)piperdine-3-carboxamido)propanoic acid], the IC50 against αvβ6 and against αvβ1 was below 100 nM throughout.

In the case of `O=C(N[C@@H](CNC(=O)[C@@H]1CCCN(CCCc2ccc3c(n2)NCCC3)C1)C(=O)O)C1CCCCC1` [Compound 262, (S)-2-(cyclohexanecarboxamido)-3-((R)-1-(3-(5,6,7,8-tetrahydro-1,8-naphthyridin-2-yl)propyl)piperidine-3-carboxamido)propanoic acid hydrochloride], the IC50 against αvβ6 and against αvβ1 was below 100 nM each time.

With `CC1(C(=O)N[C@@H](CNC(=O)[C@@H]2CCCN(CCCc3ccc4c(n3)NCCC4)C2)C(=O)O)CCCCC1` [Compound 263, (S)-2-(1-methylcyclohexane-1-carboxamido)-3-((R)-1-(3-(5,6,7,8-tetrahydro-1,8-naphthyridin-2-yl)propyl)piperidine-3-carboxamido)propanoic acid hydrochloride], the IC50 on αvβ6 and at αvβ1 was below 100 nM throughout.

With `O=C(NC[C@H](NC(=O)[C@@H]1CCCC[C@H]1C(=O)N1CCCC1)C(=O)O)[C@@H]1CCCN(CCCc2ccc3c(n2)NCCC3)C1` [Compound 264, (S)-2-((1R,2R)-2-(pyrrolidine-1-carbonyl)cyclohexane-1-carboxamido)-3-((R)-1-(3-(5,6,7,8-tetrahydro-1,8-naphthyridin-2-yl)propyl)piperidine-3-carboxamido)propanoic acid], the IC50 against αvβ6 and against αvβ1 was below 100 nM each time.

Take `CC(C)(C)OC(=O)N[C@@H](CNC(=O)[C@@H]1CCCN(CCCc2ccc3c(n2)NCCC3)C1)C(=O)O` [Compound 265, (S)-2-((tert-butoxycarbonyl)amino)-3-((R)-1-(3-(5,6,7,8-tetrahydro-1,8-naphthyridin-2-yl)propyl)piperidine-3-carboxamido)propanoic acid]: the IC50 on αvβ6 and at αvβ1 was below 100 nM throughout.

With `CNC(=O)c1cccc(CNC(=O)[C@@H]2CCCC[C@H]2C(=O)N[C@@H](CNC(=O)[C@@H]2CCCN(CCCc3ccc4c(n3)NCCC4)C2)C(=O)O)c1` [Compound 266, (S)-2-((1R,2R)-2-((3-(methylcarbamoyl)benzyl)carbamoyl)cyclohexane-1-carboxamido)-3-((R)-1-(3-(5,6,7,8-tetrahydro-1,8-naphthyridin-2-yl)propyl)piperidine-3-carboxamido)propanoic acid], the IC50 at αvβ6 and on αvβ1 was below 100 nM each time.

Consider `CN1CCc2ccc(S(=O)(=O)N3CCC[C@@H](C(=O)N[C@@H](CNC(=O)[C@@H]4CCCN(CCCc5ccc6c(n5)NCCC6)C4)C(=O)O)C3)cc21` [Compound 267, (S)-2-((R)-1-((1-methylindolin-6-yl)sulfonyl)piperidine-3-carboxamido)-3-((R)-1-(3-(5,6,7,8-tetrahydro-1,8-naphthyridin-2-yl)propyl)piperidine-3-carboxamido)propanoic acid], for which the IC50 against αvβ6 and at αvβ1 was below 100 nM each time.

For `CO[C@H]1CCN(C(=O)[C@@H]2CCCC[C@H]2C(=O)N[C@@H](CNC(=O)[C@@H]2CCCN(CCCc3ccc4c(n3)NCCC4)C2)C(=O)O)C1` [Compound 268, (S)-2-((1R,2R)-2-((S)-3-methoxypyrrolidine-1-carbonyl)cyclohexane-1-carboxamido)-3-((R)-1-(3-(5,6,7,8-tetrahydro-1,8-naphthyridin-2-yl)propyl)piperidine-3-carboxamido)propanoic acid], the IC50 on αvβ6 and against αvβ1 was below 100 nM in each case.

As to `CC1(CN[C@@H](CNC(=O)[C@@H]2CCCN(CCCc3ccc4c(n3)NCCC4)C2)C(=O)O)CCCCC1` [Compound 269, (S)-2-(((1-methylcyclohexyl)methyl)amino)-3-((R)-1-(3-(5,6,7,8-tetrahydro-1,8-naphthyridin-2-yl)propyl)piperidine-3-carboxamido)propanoic acid], the IC50 was 100 to 1000 nM against αvβ6 and above 1000 nM against αvβ1.

As for `O=C(NC[C@H](NC(=O)C12CCC(CC1)CC2)C(=O)O)[C@@H]1CCCN(CCCc2ccc3c(n2)NCCC3)C1` [Compound 270, (S)-2-(bicyclo[2.2.2]octane-1-carboxamido)-3-((R)-1-(3-(5,6,7,8-tetrahydro-1,8-naphthyridin-2-yl)propyl)piperidine-3-carboxamido)propanoic acid], the IC50 against αvβ6 and at αvβ1 was below 100 nM each time.

As for `O=C(NC[C@H](Nc1ncnc2ccccc12)C(=O)O)[C@@H]1CCCN(CCCc2ccc3c(n2)NCCC3)C1` [Compound 271, (S)-2-(quinazolin-4-ylamino)-3-((R)-1-(3-(5,6,7,8-tetrahydro-1,8-naphthyridin-2-yl)propyl)piperidine-3-carboxamido)propanoic acid], the IC50 against αvβ6 and on αvβ1 was below 100 nM each time.

As to `O=C(NC[C@H](NS(=O)(=O)c1ccccc1)C(=O)O)[C@@H]1CCCN(CCCc2ccc3c(n2)NCCC3)C1` [Compound 272, (S)-2-(phenylsulfonamido)-3-((R)-1-(3-(5,6,7,8-tetrahydro-1,8-naphthyridin-2-yl)propyl)piperidine-3-carboxamido)propanoic acid], the IC50 at αvβ6 and against αvβ1 was below 100 nM each time.

Consider `O=C(NC[C@H](Nc1ccnc2ccccc12)C(=O)O)[C@@H]1CCCN(CCCc2ccc3c(n2)NCCC3)C1` [Compound 273, (S)-2-(quinolin-4-ylamino)-3-((R)-1-(3-(5,6,7,8-tetrahydro-1,8-naphthyridin-2-yl)propyl)piperidine-3-carboxamido)propanoic acid], for which the IC50 at αvβ6 and on αvβ1 was below 100 nM each time.

Turning to `O=C(NC[C@H](NS(=O)(=O)C1CCCCC1)C(=O)O)[C@@H]1CCCN(CCCc2ccc3c(n2)NCCC3)C1` [Compound 274, (S)-2-(cyclohexanesulfonamido)-3-((R)-1-(3-(5,6,7,8-tetrahydro-1,8-naphthyridin-2-yl)propyl)piperidine-3-carboxamido)propanoic acid hydrochloride], the IC50 on αvβ6 and on αvβ1 was below 100 nM throughout.

Take `O=C(NC[C@H](NS(=O)(=O)c1ccc2c(c1)CCC2)C(=O)O)[C@@H]1CCCN(CCCc2ccc3c(n2)NCCC3)C1` [Compound 275, (2S)-2-(indan-5-ylsulfonylamino)-3-[[(3R)-1-[3-(5,6,7,8-tetrahydro-1,8-naphthyridin-2-yl)propyl]piperidine-3-carbonyl]amino]propanoic acid]: the IC50 is below 100 nM against αvβ6 and 100 to 1000 nM against αvβ1.

Regarding `O=C(NC[C@H](Nc1ncnc2ccsc12)C(=O)O)[C@@H]1CCCN(CCCc2ccc3c(n2)NCCC3)C1` [Compound 276, (2S)-3-[[(3R)-1-[3-(5,6,7,8-tetrahydro-1,8-naphthyridin-2-yl)propyl]piperidine-3-carbonyl]amino]-2-(thieno[3,2-d]pyrimidin-4-ylamino)propanoic acid], the IC50 against αvβ6 and at αvβ1 was below 100 nM in each case.
